# Reference: patent publication US20130195815A1, “METHOD FOR LABELING INSULIN-SECRETING PANCREATIC BETA CELLS AND OBTAINING PURIFIED INSULIN-SECRETING PANCREATIC B-CELLS AND AN INSULIN REPORTED” (NORTH CAROLINA CENTRAL UNIVERSITY, priority 2011, published 2013)
# Test system: INS-1 cells
# Test: GSIS assay: release of PPI-mCherry reporter into conditioned media (relative fluorescence)
# Assay type: cell-based, rat
# Conditions: INS-1 cells transduced with PPI-mCherry, 2 h
# Description: (HG—high glucose (25 mM): LG—low glucose (5.6 mM): Ex—10 nM: NF—nifedipine 10 μM, calcium channel blocker/inhibitor) (Y-axis=normalized fluorescent units—FLU).
# The reporter system was tested in insulin secretion assays.
# GSIS: INS-1 cells were transduced with PPI-mCherry and allowed to recover. […] Conditioned media was removed and spotted onto a membrane and relative fluorescence determined using an Odyssey CLx imager (Licor Corp).
substance,measurement,value
"PPI-mCherry: Genetically encoded preproinsulin-mCherry fluorescent protein reporter (SEQ ID NO: 1), delivered by pLenti vector",glucose stimulated release of the PPI-mCherry reporter (high vs low glucose),1.7 fold
